Measured values from patent US20250270648A1, “MOLECULAR SIGNATURE FOR ASSESSING THE RESPONSIVENESS OF CANCER TO MITOCHONDRIA-TARGETED ANTIOXIDANTS” (UNIVERSITÉ CATHOLIQUE DE LOUVAIN, priority 2021, published 2025).

Columns and labels:
[1] = test system: MDA-MB-231 cells; experiment: Direct cell counting, MitoQ alone; assay type: cell-based, human
Method: (§1) To probe the effects of MitoQ alone on cell numbers, MDA-MB-231, SkBr3, MDA-MB-436 or MCF10A (2,500-10,000 cells/well) cells were plated in 96-well plates and treated with increasing concentrations of MitoQ. At each time point, the number of cells per well was measured using a SpectraMax i3 spectrophotometer equipped with a MiniMax™ imaging cytometer.

[2] = test system: SkBr3 cells; experiment: Direct cell counting, MitoQ alone; assay type: cell-based, human
Method: as §1

[3] = test system: MDA-MB-231 cells; experiment: Cell invasion, Boyden chamber; assay type: cell-based, human; details: MitoQ 100 nM, 48 h
Method: (§2) Cell chemotaxis was assayed in a 48-well micro-chemotaxis chamber (Neuroprobe® AP48) with polycarbonate porous membrane (8-μm diameter, Neuroprobe® PFB8) coated with 5 μg/mL of fibronectin, according to manufacturer's instructions. Briefly, MDA-MB-231 (20,000 cells/well), SkBr3 (40,000 cells/well) or MDA-MB-436 (80,000 cells/well) cells were seeded in the upper compartment in culture media deprived of FBS, and 0.2% (v/v) FBS-containing medium (for MDA-MB-231 and MDA-MB-436 cells) or 10% (v/v) FBS-containing medium supplemented with 10 ng/mL of human EGF (PrepoTech®, cat #AF-100-15) (for SkBr3 cells) were used as chemo-attractants. Cells were allowed to invade through the membrane overnight. Membranes were then washed with PBS, fixed in methanol, and stained with crystal violet (0.23% v/v). Pictures were acquired under an Axiovert™ 40 CFL microscope (Zeiss®) equipped with a MRC camera (Zeiss®). Quantification was performed using the Image J software.

[4] = test system: SkBr3 cells; experiment: Cell invasion, Boyden chamber; assay type: cell-based, human; details: MitoQ 100 nM, 48 h
Method: as §2

[5] = test system: MDA-MB-436 cells; experiment: Cell invasion, Boyden chamber; assay type: cell-based, human; details: MitoQ 100 nM, 48 h
Method: as §2

[6] = test system: MDA-MB-231 human triple-negative breast cancer; experiment: Spontaneous metastasis and recurrence, orthotopic MDA-MB-231 model; assay type: in vivo, mouse; details: MitoQ 20 mg/kg daily oral
Method: For spontaneous metastasis assays using human breast cancer cells, MDA-MB-231, SkBr3 or MDA-MB-436 cells were prepared in medium containing 10% growth factor-reduced Matrigel (Corning®, cat #734-11-01). Five weeks-old female Rj:NMRI-Foxnlnu/nu mice (Janvier) were injected with 10^6 cancer cells in 100 μL of solution in the left second mammary fat pad. After tumor take (72 h), mice were daily treated ±20 mg/Kg MitoQ by oral gavage. Tumor size was measured once per week with an electronic caliper. Four weeks after treatment initiation, primary tumors were surgically removed and processed for RT-qPCR. Tumor recurrence was monitored until recurred tumors in the vehicle group reached about […], i.e. 24 days after surgery. At this time point, mice were sacrificed and their lungs collected and fixed in PFA 4% for immunocytochemistry.
Collected lungs were processed for immunohistochemistry as previously shown. They were stained for Cytokeratin 19 (CK19) using a primary rabbit recombinant anti-CK19 antibody (Abcam®, cat #ab76539) and a secondary Envision anti-rabbit antibody coupled to HRP (Dako®, cat #K4003), and counter-stained with H&E. Images of whole lung slides were acquired on a SCN400 Slide Scanner (Leica®) and analyzed with the QuPath Software (0.1.2). Quantification was performed according to Chang and Erler (Adv Exp Med Biol, 2016; 899, 245-251), and the number of lung metastases was proportional to the positive areas of CK19 staining.

[7] = test system: MDA-MB-231 spheroids; experiment: Spheres / stem-like spheroids; assay type: cell-based, human
Method: (§3) Total mRNA from MDA-MB-231, SkBr3 and MDA-MB-436 cells treated ±MitoQ for 48 h was extracted using the NucleoSpin RNA Kit (Macherey-Nagel®). Total mRNA from primary tumors was extracted with Tri reagent (Molecular Research Center®, Cat #TR118). mRNAs were quantified by the Qubit BR dsRNA assay kit (Thermo Fisher Scientific®), and mRNA integrity was evaluated on an Agilent® 2100 Bioanalyzer with the RNA 6000 nano kit (Agilent®). It was reverse transcribed in complementary DNA using the High-Capacity cDNA Reverse Transcription Kit (Applied Biosystems®, cat #4368814) according to manufacturer's protocol. Complementary DNA (500 ng) was amplified by real time quantitative PCR (RT-qPCR) using the low ROX SYBR Master Mix dTTP Blue (Eurogentec®) and primers listed in Table 5 and Table 6 on a ViiA 7 Real-Time PCR System (Thermo Fisher Scientific®). Gene expression was normalized to β-actin gene expression.
(§4) 3D models were used to obtain an enriched population in stem cells. For that, 10^4 MDA-MB-231, SkBr3 or MDA-MB-436 cancer cells were grown in suspension using 10 cm dishes coated with Polyhema in stem-cell medium: DMEM/F-12 (Gibco®, cat #11320033) supplemented with 100 units/mL penicillin, 100 μg/mL streptomycin, 20 μL/mL B27 (Gibco®, cat #17504044), 20 ng/mL human recombinant epithelial growth factor (EGF) (Peprotech®, cat #AF-100-15), 10 ng/mL basic fibroblast growth factor (bFGF; Peprotech®, cat #100-18B) and 2.5 mg/mL insulin. When spheres reached around 100 μm in diameter, they were washed with PBS and dissociated with accutase (Stem Cell Technology®, cat #07920) in order to have single cells again. At the third passage, dissociated spheres were treated ±MitoQ for 96 h. Images were captured on Axiovert™ 40 CFL microscope equipped with a MRC camera. At the end of the treatment, living cells were collected for RNA extraction.
(§5) Stem like-spheroids were prepared by seeding 5,000 MDA-MB-231, SkBr3 or MDA-MB-436 dissociated spheres/well in ultra-Low attachment 96-well plates (Corning®, cat #7007) in stem cell medium supplemented as described above. After overnight formation, spheroids were treated ±MitoQ for 96 h. Spheroid growth was monitored using an Axio Observer live-cell phase contrast microscope (Zeiss®).

[8] = test system: SkBr3 spheroids; experiment: Spheres / stem-like spheroids; assay type: cell-based, human
Method: as §3, §4, §5

[9] = test system: murine 4T1 breast cancer cells; experiment: Cell viability, crystal violet; assay type: cell-based, mouse; details: increasing doses of cisplatin ±100 nM MitoQ, 48 h
Method: […] The solution was carefully removed and plates were washed twice with water. After drying protected by light, cells were resuspended in 50 μl DMSO and the plates were read with a Victor X4 plate reader (Perkin®).

Compound: COC1=C(OC)C(=O)C(CCCCCCCCCC[P+](c2ccccc2)(c2ccccc2)c2ccccc2)=C(C)C1=O [MitoQ]
- MitoQ dose starting from which cell number is reduced ([1]; doses 0 to 500 nM): ≥ 500 nM
- cell numbers, dose dependence ([1]; increasing doses of MitoQ): Dose-dependent decreases
- MitoQ dose from which cell numbers started to decrease ([2]; doses 0 to 500 nM): ≥ 250 nM
- cell numbers, dose dependence ([2]; increasing doses of MitoQ): Dose-dependent decreases
- invasive capability [3]: highly significantly reduced
- invasive capability [4]: highly significantly reduced
- cell invasion [5]: inhibited
- primary tumor growth ([6]; P=0.3150): not significantly affected
- recurrence-free survival ([6]; after surgery): significantly improved
- mice with no metastasis ([6]; day +56, 9.5% in the control group): 75.0%
- metastatic dissemination (lungs) ([6]; sacrifice day +56): highly significantly prevented
- animals in which primary tumors relapsed after surgery ([6]; surgery day +32, 100% in the control group): 25%
- dose sufficient to destabilize already formed spheroids [7]: 100 nM
- mRNA expression of stem cells markers POU5F1/(Oct4), NANOG and SOX2 ([7]; MitoQ 250 nM): significant decrease
- spheroid formation ([7]; MitoQ 250 nM): inhibited
- NANOG and SOX2 mRNA expression [8]: decreased
- spheroid formation and spheroid destabilization [8]: Neither inhibition of spheroid formation not spheroid destabilization was seen
- cancer cell killing activity, cisplatin combined with MitoQ [9]: did not interfere
